Assay results as given in patent publication US20170065579A1, “Sustained Release Low Dose Formulations and Uses Thereof” (priority 2015, published 2017).

Columns and labels:
[1] = naltrexone release from payloaded matrices (in vitro release); format: physicochemical; settings: in contrast to the hydrochloride form
Description: The number of days of release are shown on the horizontal axis (X axis). The cumulative percentage of naltrexone release is shown on the vertical axis (Y axis). […] Release was measured under conditions of about 37 degrees Celsius. Before release was measured, steps had been taken to incorporate (payload) naltrexone into the matrices.
The number of days of release are shown on the horizontal axis (X axis). The cumulative percentage of naltrexone release is shown on the vertical axis (Y axis). Before release was measured, steps had been taken to incorporate (payload) naltrexone into the matrices.
Exemplary Formula #1—PBS Buffer Containing 0.01% Sodium Azide as Suspension and Release Medium: • 1. To a 1 L volumetric flask, add the contents of 1 package of ready-to-use powder for PBS • 2. Add sodium azide ([…]) • 3. Add Millipore water to the calibration mark • 4. Dissolve all solids • 5. Store at 8 degrees celsius (max)

[2] = system: opioid receptor; settings: cited from earlier work
[3] = low dosages, about 3-5 mg/day; cited from earlier work
[4] = in vivo, cited from earlier work

SMILES	release profiles [1]	potency relative to naloxone [2]	symptom severity [3]	oral bioavailability ([4]; po)	duration of effect [4]
O=C1CC[C@@]2(O)[C@H]3Cc4ccc(O)c5c4[C@@]2(CCN3CC2CC2)[C@H]1O5 [naltrexone base, naltrexone]	meet preferred target criteria				
O=C1CC[C@@]2(O)[C@H]3Cc4ccc(O)c5c4[C@@]2(CCN3CC2CC2)[C@H]1O5 [naltrexone]		twice the potency	reduce symptom severity	good oral bioavailability	can last for a day
